The assay addresses T1, human full-length MKNK1 (Homo sapiens, UniProt Q9BUB5, T385D).
T1 construct: GST (N); purchased Carna Biosciences 02-145; host or cells: insect cells (baculovirus expression system)
Put plainly: MKNK1 kinase high ATP assay (TR-FRET). It counts as biochemical. As to conditions: 2 mM ATP, after preincubation with MKNK1; read-out: MKNK1 IC50 (MKNK1 high ATP). The method, then:
MKNK1-inhibitory activity at high ATP of compounds of the present invention after their preincubation with MKNK1 was quantified employing the TR-FRET-based MKNK1 high ATP assay as described in the following paragraphs.
As substrate for the kinase reaction the biotinylated peptide biotin-Ahx-[…] (C-terminus in amide form) was used, which can be purchased e.g. from the company Biosyntan (Berlin-Buch, Germany).
For the assay 50 nL of a 100 fold concentrated solution of the test compound in DMSO was pipetted into a black low volume 384 well microtiter plate (Greiner Bio-One, Frickenhausen, Germany), 2 μL of a solution of MKNK1 in aqueous assay buffer [50 mM HEPES pH 7.5, 5 mM MgCl2, 1.0 mM dithiothreitol, 0.005% (v/v) Nonidet-P40 (Sigma)] was added and the mixture was incubated for 15 min at 22° C. to allow pre-binding of the test compounds to the enzyme before the start of the kinase reaction. Then the kinase reaction was started by the addition of 3 μL of a solution of adenosine-tri-phosphate (ATP, 3.3 mM=>final conc. in the 5 μL assay volume is 2 mM) and substrate (0.1 μM=>final conc. in the 5 μL assay volume is 0.06 μM) in assay buffer and the resulting mixture was incubated for a reaction time of 30 min at 22° C. The concentration of MKNK1 was adjusted depending of the activity of the enzyme lot and was chosen appropriate to have the assay in the linear range, typical concentrations were in the range of 0.003 μg/mL. The reaction was stopped by the addition of 5 μL of a solution of TR-FRET detection reagents (5 nM streptavidine-XL665 [Cisbio Bioassays, Codolet, France] and 1 nM anti-ribosomal protein S6 (pSer236)-antibody from Invitrogen [#44921G] and 1 nM LANCE EU-W1024 Labeled ProteinG [Perkin-Elmer, product no. AD0071]) in an aqueous EDTA-solution (100 mM EDTA, 0.1% (w/v) bovine serum albumin in 50 mM HEPES pH 7.5).
The resulting mixture was incubated for 1 h at 22° C. to allow the formation of complex between the phosphorylated biotinylated peptide and the detection reagents. Subsequently the amount of phosphorylated substrate was evaluated by measurement of the resonance energy transfer from the Eu-chelate to the streptavidine-XL. Therefore, the fluorescence emissions at 620 nm and 665 nm after excitation at 350 nm were measured in a TR-FRET reader, e.g. a Rubystar (BMG Labtechnologies, Offenburg, Germany) or a Viewlux (Perkin-Elmer). The ratio of the emissions at 665 nm and at 622 nm was taken as the measure for the amount of phosphorylated substrate.
T1 sequence (Q9BUB5 1-424 isoform Q9BUB5-2 T344D): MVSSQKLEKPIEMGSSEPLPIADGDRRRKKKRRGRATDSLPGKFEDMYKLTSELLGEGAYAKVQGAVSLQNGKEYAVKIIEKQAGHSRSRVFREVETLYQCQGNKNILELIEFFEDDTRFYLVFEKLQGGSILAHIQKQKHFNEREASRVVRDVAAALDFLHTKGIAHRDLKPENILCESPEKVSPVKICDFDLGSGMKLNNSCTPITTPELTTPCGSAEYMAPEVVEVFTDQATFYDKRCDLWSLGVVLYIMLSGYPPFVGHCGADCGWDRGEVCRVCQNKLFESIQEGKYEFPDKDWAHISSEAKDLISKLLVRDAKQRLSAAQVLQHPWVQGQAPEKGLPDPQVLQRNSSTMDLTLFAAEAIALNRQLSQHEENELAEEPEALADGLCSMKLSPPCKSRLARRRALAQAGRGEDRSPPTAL
The term IC50 denotes the midpoint of a concentration-inhibition curve. In the case of `COc1cc2[nH]ncc2cc1Nc1ncnc2sc3c(c12)CCC(C(=O)N1[C@H](C)CC[C@H]1C)C3` (mixture of isomers) [Example 178, [(2R,5R)-2,5-Dimethylpyrrolidin-1-yl]{(7RS)-4-[(6-methoxy-1H-indazol-5-yl)amino]-5,6,7,8-tetrahydro[1]benzothieno[2,3-d]pyrimidin-7-yl}methanone], the IC50 amounted to 0.2 nM.
On to `CC(C)Oc1cc2[nH]ncc2cc1Nc1ncnc2sc3c(c12)CCC(C(=O)N1[C@H](C)CC[C@H]1C)C3` (mixture of isomers) [Example 227, [(2R,5R)-2,5-Dimethylpyrrolidin-1-yl]{(7RS)-4-[(6-isopropoxy-1H-indazol-5-yl)amino]-5,6,7,8-tetrahydro[1]benzothieno[2,3-d]pyrimidin-7-yl}methanone], for which the IC50 stood at 0.6 nM.
Consider `CCOc1cc2[nH]ncc2cc1Nc1ncnc2sc3c(c12)CCC(C(=O)N1CC[C@@H](O)C1)C3` (mixture of isomers) [Example 233, {(7RS)-4-[(6-Ethoxy-1H-indazol-5-yl)amino]-5,6,7,8-tetrahydro[1]benzothieno[2,3-d]pyrimidin-7-yl}[(3R)-3-hydroxypyrrolidin-1-yl]methanone], for which the IC50 was 0.5 nM.
In the case of `COc1cc2[nH]ncc2cc1Nc1ncnc2sc3c(c12)CCC(C(=O)N1C[C@@H](O)[C@H](O)C1)C3` (mixture of isomers) [Example 243, [(3R,4R)-3,4-Dihydroxypyrrolidin-1-yl]{(7RS)-4-[(6-methoxy-1H-indazol-5-yl)amino]-5,6,7,8-tetrahydro[1]benzothieno[2,3-d]pyrimidin-7-yl}methanone], the IC50 was determined as 0.3 nM.
Regarding `COc1cc2[nH]ncc2cc1Nc1ncnc2sc3c(c12)CCC(C(=O)N1C[C@H](O)[C@@H](O)C1)C3` (mixture of isomers) [Example 244, [(3R,4R)-3,4-Dihydroxypyrrolidin-1-yl]{(7RS)-4-[(6-methoxy-1H-indazol-5-yl)amino]-5,6,7,8-tetrahydro[1]benzothieno[2,3-d]pyrimidin-7-yl}methanone], the IC50 is 0.4 nM.
For the compound `CCOc1cc2[nH]ncc2cc1Nc1ncnc2sc3c(c12)CCC(C(=O)N1CC[C@H](O)C1)C3` (mixture of isomers) [Example 246, {(7RS)-4-[(6-Ethoxy-1H-indazol-5-yl)amino]-5,6,7,8-tetrahydro[1]benzothieno[2,3-d]pyrimidin-7-yl}[(3S)-3-hydroxypyrrolidin-1-yl]methanone], the IC50 was 0.9 nM.
With `COc1cc2[nH]ncc2cc1Nc1ncnc2sc3c(c12)CCC(C(=O)N1CC2CC1CO2)C3` (mixture of isomers) [Example 262, {(7RS)-4-[(6-Methoxy-1H-indazol-5-yl)amino]-5,6,7,8-tetrahydro[1]benzothieno[2,3-d]pyrimidin-7-yl}[(1S,4S)-2-oxa-5-azabicyclo[2.2.1]hept-5-yl]methanone], the IC50 is 6.1 nM.
As for `CCOC(=O)C1CCc2c(sc3ncnc(Nc4ccc5[nH]ncc5c4C)c23)C1` (racemic) [Example 60, (RS)-Ethyl 4-[(4-methyl-1H-indazol-5-yl)amino]-5,6,7,8-tetrahydro[1]benzothieno[2,3-d]pyrimidine-7-carboxylate], the figure is 2180 nM; as for `CCOC(=O)C1CCc2c(sc3ncnc(Nc4ccc5[nH]nc(C)c5c4)c23)C1` (racemic) [Example 61, (RS)-Ethyl 4-[(3-methyl-1H-indazol-5-yl)amino]-5,6,7,8-tetrahydro[1]benzothieno[2,3-d]pyrimidine-7-carboxylate], 1020 nM.
For the compound `Cc1n[nH]c2ccc(Nc3ncnc4sc5c(c34)CCC(C(=O)O)C5)cc12` (racemic) [Example 62, (RS)-4-[(3-Methyl-1H-indazol-5-yl)amino]-5,6,7,8-tetrahydro[1]benzothieno[2,3-d]pyrimidine-7-carboxylic acid], the IC50 is 1420 nM.
The same measure for `CC(C)NC(=O)C1CCc2c(sc3ncnc(Nc4cc5cn[nH]c5cc4F)c23)C1` (racemic) [Example 63, (RS)-4-[(6-Fluoro-1H-indazol-5-yl)amino]-N-(propan-2-yl)-5,6,7,8-tetrahydro[1]benzothieno[2,3-d]pyrimidine-7-carboxamide]: 10.2 nM.
Consider `CC(C)Oc1cc2[nH]ncc2cc1Nc1ncnc2sc3c(c12)CCC(C(=O)O)C3` (racemic) [Example 69, (RS)-4-{[6-(Propan-2-yloxy)-1H-indazol-5-yl]amino}-5,6,7,8-tetrahydro[1]benzothieno[2,3-d]pyrimidine-7-carboxylic acid], for which the half-inhibitory concentration (IC50) was determined as 3.9 nM.
Turning to `COC(=O)C1CCc2c(sc3ncnc(Nc4ccc5[nH]ncc5c4)c23)C1` (racemic) [Example 73, (RS)-Methyl 4-(1H-indazol-5-ylamino)-5,6,7,8-tetrahydro[1]benzothieno[2,3-d]pyrimidine-7-carboxylate], the IC50 worked out at 8.9 nM.
For `CC(C)OC(=O)C1CCc2c(sc3ncnc(Nc4ccc5[nH]ncc5c4)c23)C1` (racemic) [Example 74, (RS)-Propan-2-yl 4-(1H-indazol-5-ylamino)-5,6,7,8-tetrahydro[1]benzothieno[2,3-d]pyrimidine-7-carboxylate], the IC50 was found to be 27.6 nM.
As to `O=C(NCc1cccnc1)C1CCc2c(sc3ncnc(Nc4ccc5[nH]ncc5c4)c23)C1` (racemic) [Example 76, (RS)-4-(1H-Indazol-5-ylamino)-N-(pyridin-3-ylmethyl)-5,6,7,8-tetrahydro[1]benzothieno[2,3-d]pyrimidine-7-carboxamide], the IC50 stood at 5.1 nM.
`N#Cc1ccc(NC(=O)C2CCc3c(sc4ncnc(Nc5ccc6[nH]ncc6c5)c34)C2)cc1` (racemic) [Example 77, (RS)—N-(4-Cyanophenyl)-4-(1H-indazol-5-ylamino)-5,6,7,8-tetrahydro[1]benzothieno[2,3-d]pyrimidine-7-carboxamide]: the IC50 stood at 19.7 nM.
For the compound `O=C(NC1COC1)C1CCc2c(sc3ncnc(Nc4ccc5[nH]ncc5c4)c23)C1` (racemic) [Example 78, (RS)-4-(1H-Indazol-5-ylamino)-N-(oxetan-3-yl)-5,6,7,8-tetrahydro[1]benzothieno[2,3-d]pyrimidine-7-carboxamide], the IC50 came to 15.6 nM.
Turning to `N#Cc1cccc(NC(=O)C2CCc3c(sc4ncnc(Nc5ccc6[nH]ncc6c5)c34)C2)c1` (racemic) [Example 79, (RS)—N-(3-Cyanophenyl)-4-(1H-indazol-5-ylamino)-5,6,7,8-tetrahydro[1]benzothieno[2,3-d]pyrimidine-7-carboxamide], the IC50 came out at 10.5 nM.
As for `O=C(NC1CC1)C1CCc2c(sc3ncnc(Nc4ccc5[nH]ncc5c4)c23)C1` (racemic) [Example 80, (RS)-N-Cyclopropyl-4-(1H-indazol-5-ylamino)-5,6,7,8-tetrahydro[1]benzothieno[2,3-d]pyrimidine-7-carboxamide], the IC50 worked out at 9.1 nM.
Consider `O=C(NCc1ccccn1)C1CCc2c(sc3ncnc(Nc4ccc5[nH]ncc5c4)c23)C1` (racemic) [Example 81, (RS)-4-(1H-indazol-5-ylamino)-N-(pyridin-2-ylmethyl)-5,6,7,8-tetrahydro[1]benzothieno[2,3-d]pyrimidine-7-carboxamide], for which the IC50 worked out at 2.4 nM.
As for `O=C(C1CCc2c(sc3ncnc(Nc4ccc5[nH]ncc5c4)c23)C1)N1CCCCC1` (racemic) [Example 82, (RS)-[4-(1H-indazol-5-ylamino)-5,6,7,8-tetrahydro[1]benzothieno[2,3-d]pyrimidin-7-yl](piperidin-1-yl)methanone], the figure is 14.6 nM.
For `CCN(CC)C(=O)C1CCc2c(sc3ncnc(Nc4ccc5[nH]ncc5c4)c23)C1` (racemic) [Example 83, (RS)-N,N-diethyl-4-(1H-indazol-5-ylamino)-5,6,7,8-tetrahydro[1]benzothieno[2,3-d]pyrimidine-7-carboxamide], the IC50 stood at 14.7 nM.
As to `CN(C)CCN(Cc1ccccc1)C(=O)C1CCc2c(sc3ncnc(Nc4ccc5[nH]ncc5c4)c23)C1` (racemic) [Example 84, (RS)-N-benzyl-N-[2-(dimethylamino)ethyl]-4-(1H-indazol-5-ylamino)-5,6,7,8-tetrahydro[1]benzothieno[2,3-d]pyrimidine-7-carboxamide], the IC50 came to 5.5 nM.
For the compound `O=C(C1CCc2c(sc3ncnc(Nc4ccc5[nH]ncc5c4)c23)C1)N1CCC(O)CC1` (racemic) [Example 85, (RS)-(4-hydroxypiperidin-1-yl)[4-(1H-indazol-5-ylamino)-5,6,7,8-tetrahydro[1]benzothieno[2,3-d]pyrimidin-7-yl]methanone], the IC50 turned out to be 11.7 nM.

The values above are taken from patent US9540392B2, “Thienopyrimidines” (BAYER PHARMA AKTIENGESELLSCHAFT, priority 2012, dated 2017).
